Results published in US8404664B2, “Phosphonated Rifamycins and uses thereof for the prevention and treatment of bone and joint infections” (Targanta Therapeutics, Inc., priority 2005, dated 2013).

What was measured:
[1] = Regeneration of drug from bone powder-bound prodrug; format: in vitro ADME; conditions: for % Conversion of bone-bound prodrug to parent drug: 24 h incubation, 37° C.; for Impact of the medium on the rate of regeneration of parent drug (in words): serum compared to PBS
Method: Amounts of parent drug “regenerated” from the phosphonated prodrug were measured as follows. Washed bone powder-bound prodrugs from the above experiment were resuspended in 400 μL PBS+2% DMSO or in 400 μL 50% (v/v in PBS+2% DMSO) human or rat serum. The suspension was incubated overnight at 37° C., centrifuged at 13,000 rpm for 2 min and the supernatant was recovered. The amount of regenerated parent drug in the supernatant was determined by measurements using the microbiological assay that was previously described for the prodrugs themselves. The amount of prodrug was deduced from standard curves of known amounts of parent drug that were used as reference for each experiment.

[2] = test system: S. aureus RN4220; assay: Antibacterial susceptibility (MIC), NCCLS broth microdilution; format: cell-based; conditions: CAMHB, 37° C., 18 h
Method: (§1) Susceptibility of S. aureus strains to the known antibiotics and synthesized compounds was determined by following the guidelines set by NCCLS (M26-A). Compounds were diluted two-fold serially in DMSO and transferred to cation-adjusted Mueller Hinton broth (CAMHB; Becton Dickinson). 50 μL of compounds diluted in CAMHB was mixed with 100 μL of bacteria diluted in CAMHB in 96-well microtiter plates. The final concentration of micro-organisms in the assay was 5×10^5 c.f.u. per mL and the final concentration of DMSO in the assay was 1.25%. Assays were set up in duplicate and incubated at 37° C. for 18 h. The lowest concentration of compound that inhibited visible growth was reported as the minimum inhibitory concentration (MIC).

[3] = test system: S. aureus BK85 (Fluoroquinolone resistant MRSA); assay: as above; format: cell-based
Method: as §1

[4] = test system: S. aureus ATCC 43300 (Fluoroquinolone sensitive MRSA); assay: as above; format: cell-based
Method: as §1

[5] = test system: S. aureus ATCC 13709; assay: as above; format: cell-based; conditions: for Antibacterial activity (in words, summary of Table 1): summary over the strains of Table 1
Method: as §1

[6] = test system: S. aureus ATCC 13709 Novobiocin and Rifampicin resistant variant; assay: microbe, parasite or virus in culture; format: cell-based; conditions: for Minimum inhibitory concentration, S. aureus ATCC 13709 variant: Novobiocin and Rifampicin resistant variant
Method: as §1

[7] = test system: E. coli LBB925 (tolC mutant); assay: Antibacterial susceptibility (MIC), NCCLS broth microdilution; format: cell-based; conditions: tolC mutant
[8] = test system: S. aureus ATCC 13709; assay: Antibacterial susceptibility (MIC) in the presence of serum; format: cell-based
Method: as §1
Susceptibility testing experiments were also carried out in the presence of serum.
These experiments were carried out similar to the susceptibility testing with the following modifications. 75 μL of compounds diluted in CAMHB was mixed with 75 μL of bacteria diluted in 100% serum from any given source (commercial pooled mouse serum (MS) and human serum (HS), Equitech-Bio Inc.) or diluted in 8% purified human serum albumin (HSA) (Calbiochem). The final concentration of animal serum in the assay was 50% and the final concentration of purified human serum albumin in the assay was 4%; the concentrations of all other components were identical to those described for susceptibility testing.

SMILES | Regeneration of parent drug once bound to bone (in words) [1] | % Conversion of bone-bound prodrug to parent drug ([1]; 50% Rat Serum) [%] | % Conversion of bone-bound prodrug to parent drug ([1]; PBS) | Impact of the medium on the rate of regeneration of parent drug (in words) [1] | Minimum inhibitory concentration, S. aureus RN4220 [2] [µg/mL] | Minimum inhibitory concentration, S. aureus BK85 [3] [µg/mL] | Minimum inhibitory concentration, S. aureus ATCC 43300 [4] [µg/mL] | Minimum inhibitory concentration, S. aureus ATCC 13709 [5] [µg/mL] | Antibacterial activity (in words, summary of Table 1) [5] | Activity against the Rifampicin resistant variant of S. aureus ATCC13709 (in words) [6] | Minimum inhibitory concentration, S. aureus ATCC 13709 variant [6] [µg/mL] | Minimum inhibitory concentration, E. coli LBB925 [7] [µg/mL] | Impact of serum on the MICs (in words) [8] | Minimum inhibitory concentration, S. aureus ATCC 13709 + 50% Human Serum [8] [µg/mL] | Minimum inhibitory concentration, S. aureus ATCC 13709 + 50% Mouse Serum [8] [µg/mL] | Minimum inhibitory concentration, S. aureus ATCC 13709 + 50% Rat Serum ([8]; 50% Rat Serum) [µg/mL]
CCN(CC)CC.CCN(CC)CC.CO[C@H]1/C=C/O[C@@]2(C)Oc3c(C)c(O)c4c(c3C2=O)C2=NC3(CCN(CC(C)C)CC3)NC2=C(NC(=O)/C(C)=C\C=C\[C@H](C)[C@H](OC(=O)CCC(=O)NCCCC(=O)NC(P(=O)(O)O)P(=O)(O)O)[C@@H](C)[C@@H](O)[C@@H](C)[C@H](OC(C)=O)[C@@H]1C)C4=O [Compound 45, 21-O-(3-(3-((bisphosphonomethyl)carbamoyl)propylcarbamoyl)propanoyl)-1′,4-didehydro-1-deoxy-1,4-dihydro-5′-(2-methylpropyl)-1-oxorifamycin XIV] | not able to regenerate | 0.002 | <lod | not significantly impacted | 64 | 64 | 64 | 32 | near complete loss of activity | complete lack of activity | >128 | >128 | no impact | 64 | 128 | 
CCN(CC)CC.CCN(CC)CC.CO[C@H]1/C=C/O[C@@]2(C)Oc3c(C)c(O)c4c(=O)c(c5oc6cc(N7CCN(CC(C)C)CC7)cc(O)c6nc-5c4c3C2=O)NC(=O)/C(C)=C\C=C\[C@H](C)[C@H](OC(=O)CCC(=O)NCCC(=O)NC(P(=O)(O)O)P(=O)(O)O)[C@@H](C)[C@@H](O)[C@@H](C)[C@H](OC(C)=O)[C@@H]1C [Compound 78, 21-O-(3-(2-((bisphosphonomethyl)carbamoyl)ethylcarbamoyl)propanoyl)-1′,4-Didehydro-1-deoxy-1,4-dihydro-3′-hydroxy-5′-[4-(2-methylpropyl)-1-piperazinyl]-1-oxorifamycin VIII] | not able to regenerate | 0.01 | <lod | significant acceleration | 16 | 16 | 8 | 8 | near complete loss of activity | complete lack of activity | >128 | >128 |  | >128 | >128 | >128
